Results from PMC5751205, “Rapid Non-Enzymatic Glycation of the Insulin Receptor under Hyperglycemic Conditions Inhibits Insulin Binding In Vitro: Implications for Insulin Resistance” (International Journal of Molecular Sciences, 2017).
No end group written: not given here.

Target: T1, insulin-HRP (Homo sapiens, UniProt P01308)
Assay: Insulin-HRP binding to IR peptides (ELISA plate, ABTS read-out)
Conditions: Ins-HRP at 10 nM, IR peptide in the absence of glycation
Procedure: (§1) Each peptide was held constant at 0.1 mg/mL in pH 7.4 phosphate-buffered saline, and 100 μL aliquots were pipetted into rows of a Costar high-binding ELISA plate and incubated for an hour. The plate was washed 3× with 0.1% Tween 20 (Sigma-Aldrich) in 0.05 M phosphate buffered saline (PBS). Two hundred µL 2% polyvinyl alcohol in PBS were added to each well and incubated 1 h. The plates were then washed 3× again with 0.1% Tween 20. A solution of insulin conjugated to horse-radish peroxidase (HRP), 0.83 µg in 1.0 mL PBS, was made and serially diluted with PBS by thirds, ten times. These serial dilutions were added to the plate wells, incubated for an hour, and then washed 3× as before. Finally, 100 µL of stock ABTS [2,2′-azino-bis(3-ethylbenzothiazoline-6-sulphonic acid)] (Millipore, Burlington, MA, USA) was added to each well, incubated for thirty minutes, and the plate was then read on a SpectraMax Plus scanning microplate spectrophotometer at 405 nm. Controls wells lacking peptide but with PVA, INS-HRP and ABTS measured non-specific binding that was subtracted from the absorbance values of the rest of the wells. All experiments were run in triplicate and the averages of the corrected absorbances were then plotted against the concentration of the INS–HRP for each peptide to yield binding curves. Because binding curves are calculated by plotting differences, it was not possible to incorporate error bars into these curves.

T1 sequence (P01308 90-110): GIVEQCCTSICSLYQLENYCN
T1 sequence (P01308 25-54): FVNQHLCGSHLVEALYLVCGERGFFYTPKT

Row | Substance | 10 nM Ins-HRP Binding (Native)
1 | ENCSVIEGHLQ [51-61, synthetic insulin receptor peptide, residues 51-61 of human IR, insulin-like] | YES
2 | GMDIRNNLTRLHELE [37-51, synthetic insulin receptor peptide, residues 37-51 of human IR (UniProt P06213)] | no
3 | H-FRVYGLESLKDLF [91-103] | YES
4 | H-NLTVIRGSRLFFNY [105-118] | YES
5 | H-TIDWSRILDS [157-166] | no
6 | HLYFGEVCPGMDIRNN [28-43, synthetic insulin receptor peptide, residues 28-43 of human IR (UniProt P06213)] | no

The next lines start with the values.

Row | 10 nM Ins-HRP Binding (Native) | Substance
7 | no | ESEDSQKHNQSEYEDS [689-705, synthetic insulin receptor peptide, residues 689-705 of human IR]
8 | no | H-TQGKLFFHYNPK [453-464]
9 | no | KTFEDYLHNVVFV [730-742, synthetic insulin receptor peptide, residues 730-742 of human IR]

Target: T1, insulin-HRP
Assay: Effect of glycation on insulin-HRP binding to IR peptides
Conditions: 200 mM glucose, six days
Procedure: Insulin receptor peptides (Figure 1) were synthesized by RS Synthesis (Louisville, KY, USA) to at least 95% purity by high pressure liquid chromatography (HPLC) and mass spectrometry. Peptides or recombinant human insulin (rHu) (Lilly, Indianapolis, IN, USA) were dissolved in glucose-free, phenol-red-free, Dulbecco’s modified Eagle growth medium (DMEM) to 1 mg/mL. Stock 2.0 M D-glucose (Sigma-Aldrich, St. Louis, MO, USA) solutions were also made in DMEM. The peptide and glucose stocks were combined to yield final reaction solutions with peptides at 0.1 mg/mL and glucose at […]. Combinations were incubated at 36–38 °C for 1–6 days. Reactions were stopped and solutions were stored by freezing at −20 °C. Glycated peptides were desalted by centrifugal filtration through Ultrafree-MC 5 kda or Ultracel 3 kda filter units. Resulting retentate was resuspended in low ionic strength saline immediately before performing mass spectrometry.
as §1
The same technique just described in Section 4.3 was used to measure the effect of glycation on INS-HRP binding to IR peptides as above with one change: IR peptides were serially diluted instead of the INS-HRP, which was held constant. This methodological modification was made in order to reduce the amount of IR peptide required to obtain results. As in Section 4.3, each experiment was run in triplicate and the results averaged.

Row | Insulin-HRP binding after incubation of the peptide in 200 mM glucose | Substance
10 | nearly undetectable levels | ENCSVIEGHLQ [51-61, synthetic insulin receptor peptide, residues 51-61 of human IR, insulin-like]

Same assay, conditions: 6-day exposure to 20 mM glucose; triplicate, averaged

Row | Change of INS-HRP binding to the peptide after glycation | Substance
11 | very significant loss of INS-HRP binding | ENCSVIEGHLQ [51-61, synthetic insulin receptor peptide, residues 51-61 of human IR, insulin-like]
12 | very significant loss of INS-HRP binding | H-FRVYGLESLKDLF [91-103]
13 | very significant loss of INS-HRP binding | H-NLTVIRGSRLFFNY [105-118]

Same assay, conditions: change in Ins-HRP binding at 10 nM after exposure of the peptide to glycating conditions (six days at 20 mM glucose)

Row | Substance | Ins-HRP Binding Inhibition (Glycated)
14 | ENCSVIEGHLQ [51-61, synthetic insulin receptor peptide, residues 51-61 of human IR, insulin-like] | YES
15 | GMDIRNNLTRLHELE [37-51, synthetic insulin receptor peptide, residues 37-51 of human IR (UniProt P06213)] | no
16 | H-FRVYGLESLKDLF [91-103] | YES
17 | H-NLTVIRGSRLFFNY [105-118] | YES
18 | H-TIDWSRILDS [157-166] | no
19 | HLYFGEVCPGMDIRNN [28-43, synthetic insulin receptor peptide, residues 28-43 of human IR (UniProt P06213)] | no

The next lines start with the values.

Row | Ins-HRP Binding Inhibition (Glycated) | Substance
20 | no | ESEDSQKHNQSEYEDS [689-705, synthetic insulin receptor peptide, residues 689-705 of human IR]
21 | no | H-TQGKLFFHYNPK [453-464]
22 | no | KTFEDYLHNVVFV [730-742, synthetic insulin receptor peptide, residues 730-742 of human IR]

Same assay, conditions: peptide incubated in 20 and 60 mM glucose over six days

Row | Factor by which glycation reduces the insulin-HRP binding constant | Substance
23 | approximately 2 | ENCSVIEGHLQ [51-61, synthetic insulin receptor peptide, residues 51-61 of human IR, insulin-like]

Target: insulin receptor (IR), intact recombinant, unglycated
Assay: Insulin binding to intact unglycated insulin receptor by UV spectroscopy
Conditions: PBS pH 7.4 with 20 mM glucose, one of two independent runs
Procedure: (§2) Intact recombinant IR was obtained from Sigma-Aldrich (St. Louis, MO, USA) and utilized at 42.9 units/mL in phosphate buffered saline, pH 7.4 (PBS) or in PBS with 20 mM glucose added. PBS and 20 mM glucose solutions of IR were incubated for six days at 37 °C. An aliquot of each preparation was then subjected to centrifugal filtration and washing through Ultrafree-MC 5 kda or Ultracel 3 kda filter units. The resulting retentates were resuspended in PBS. In this way, identical preparations of unglycated IR and glycated IR were made in both PBS and in 20 mM gucose PBS. Microliter quantities of PBS buffer, or 20 mM glucose PBS, or human recombinant INS (Sigma-Aldrich, St. Louis, MO, USA) in PBS or 20 mM glucose PBS were then added serially to 100 µL of each of the four preparations of IR and to control wells containing only PBS or 20 mM glucose PBS. Experiments were carried out in a crystal 96-well plate and the serial combinations subjected to UV spectrophotometry to obtain their spectra. The spectra of the control wells were subtracted from the spectra of the experimental wells to yield expected values at each UV wavelength and differences between the controls and experimental values determined. […] Binding constants were determined from the concentration at which the binding curves inverted. […]

Row | Binding constant of unglycated INS for unglycated IR in 20 mM glucose | Substance
24 | 110 µg/mL of INS | Insulin: recombinant human insulin (Lilly for glycation; Sigma-Aldrich for IR binding)

Same assay, conditions: PBS pH 7.4 without glucose, concentration at which the binding curve inverted, one of two independent runs

Row | Binding constant of unglycated INS for unglycated IR in PBS | Substance
25 | 70 µg/mL of INS | Insulin: recombinant human insulin (Lilly for glycation; Sigma-Aldrich for IR binding)

Tested on: insulin receptor (IR), intact recombinant, glycated
Assay: Insulin binding to intact glycated insulin receptor by UV spectroscopy
Conditions: IR incubated six days at 37 °C in 20 mM glucose; binding in PBS with 20 mM glucose; measured as decrease in absorbance
Procedure: as §2

Row | Decrease in amount of INS binding due to glycation of the IR, in 20 mM glucose | Substance
26 | one third | Insulin: recombinant human insulin (Lilly for glycation; Sigma-Aldrich for IR binding)

Same assay, conditions: IR incubated six days at 37 °C in 20 mM glucose; binding in PBS without glucose; measured as decrease in absorbance

Row | Decrease in amount of INS binding due to glycation of the IR, in PBS | Substance
27 | one third | Insulin: recombinant human insulin (Lilly for glycation; Sigma-Aldrich for IR binding)

Target: not given
Assay: not given
Conditions: glucose binding non-covalently to the peptide; ref [41],[42]; read-out: Glucose Binding Kd; cited from earlier work
Procedure: Table 1 Table summarizing experiments to identify motifs determining insulin-receptor (IR) peptide glycation and whether glycation of IR peptides results in inhibition of insulin binding to these peptides. Specifically, this table provides binding constants glucose binding non-covalently to various insulin receptor (IR) peptides; glycation of the same IR peptides at 20 mM glucose for six days; the | column: Glucose Binding Kd (mM)

Row | Substance | Kd [mM]
28 | ENCSVIEGHLQ [51-61, synthetic insulin receptor peptide, residues 51-61 of human IR, insulin-like] | 52
29 | ESEDSQKHNQSEYEDS [689-705, synthetic insulin receptor peptide, residues 689-705 of human IR] | 63
30 | GMDIRNNLTRLHELE [37-51, synthetic insulin receptor peptide, residues 37-51 of human IR (UniProt P06213)] | 40
31 | H-FRVYGLESLKDLF [91-103] | 37
32 | H-NLTVIRGSRLFFNY [105-118] | 35
33 | H-TIDWSRILDS [157-166] | 57
34 | H-TQGKLFFHYNPK [453-464] | 57
35 | HLYFGEVCPGMDIRNN [28-43, synthetic insulin receptor peptide, residues 28-43 of human IR (UniProt P06213)] | 50
36 | Insulin: recombinant human insulin (Lilly for glycation; Sigma-Aldrich for IR binding) | 0.25
37 | KTFEDYLHNVVFV [730-742, synthetic insulin receptor peptide, residues 730-742 of human IR] | 60

Same assay, conditions: glucose binding non-covalently; second of two values printed for insulin; ref [41],[42]; read-out: Glucose Binding Kd (mM), second value; cited from earlier work

Row | Substance | Kd [mM]
38 | Insulin: recombinant human insulin (Lilly for glycation; Sigma-Aldrich for IR binding) | 30
